Test results taken from patent US11312719B2, “9-substituted amino triazolo quinazoline derivatives as adenosine receptor antagonists, pharmaceutical compositions and their use” (Merck Sharp & Dohme Corp., priority 2018, dated 2022).

Legend:
[1] = molecular target: human A2b adenosine receptor (Homo sapiens (Human), UniProt P29275); assay: A2b radioligand filtration binding assay; conditions: for IC50: membranes from HEK293 cells expressing human A2b receptor
Summary of the method: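 Membranes from HEK293 cells expressing human A2b receptor preincubated with compound 15 to 30 min at room temperature, then tritiated proprietary A2b antagonist (diluted to 14 nM before addition) added in PBS pH 7.4 for 60 min at room temperature. Bound radioactivity by filtration and scintillation; non-specific binding with 20 μM NECA; IC50 by 4-parameter logistic fit.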

[2] = molecular target: human A2a adenosine receptor (Homo sapiens (Human), UniProt P29274); assay: A2a receptor affinity radioligand binding assay ([3H] SCH58261); conditions: for IC50: membranes from HEK293 or CHO cells expressing human A2a receptor
Summary of the method: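 Membranes from HEK293 or CHO cells expressing human A2a were preincubated 15–30 min at room temperature with compound, then incubated 60 min at room temperature with [3H]SCH58261 (diluted to 4 nM) in 50 mM Tris pH 7.4, 10 mM MgCl2, 0.005% Tween20. Bound radioactivity was collected by filtration; nonspecific binding defined with 1 μM ZM241385; IC50 from 4-parameter logistic fit.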

human A2b adenosine receptor, sequence (P29275 whole entry): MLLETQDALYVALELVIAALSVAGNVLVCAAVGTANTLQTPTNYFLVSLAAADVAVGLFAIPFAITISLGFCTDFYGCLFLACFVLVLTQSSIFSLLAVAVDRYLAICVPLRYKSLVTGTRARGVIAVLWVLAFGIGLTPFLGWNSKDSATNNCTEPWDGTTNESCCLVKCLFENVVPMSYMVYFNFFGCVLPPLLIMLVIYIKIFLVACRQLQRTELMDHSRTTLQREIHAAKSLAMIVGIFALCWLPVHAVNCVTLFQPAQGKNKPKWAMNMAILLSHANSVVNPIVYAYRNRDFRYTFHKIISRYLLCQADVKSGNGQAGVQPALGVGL
human A2a adenosine receptor, sequence (P29274 whole entry): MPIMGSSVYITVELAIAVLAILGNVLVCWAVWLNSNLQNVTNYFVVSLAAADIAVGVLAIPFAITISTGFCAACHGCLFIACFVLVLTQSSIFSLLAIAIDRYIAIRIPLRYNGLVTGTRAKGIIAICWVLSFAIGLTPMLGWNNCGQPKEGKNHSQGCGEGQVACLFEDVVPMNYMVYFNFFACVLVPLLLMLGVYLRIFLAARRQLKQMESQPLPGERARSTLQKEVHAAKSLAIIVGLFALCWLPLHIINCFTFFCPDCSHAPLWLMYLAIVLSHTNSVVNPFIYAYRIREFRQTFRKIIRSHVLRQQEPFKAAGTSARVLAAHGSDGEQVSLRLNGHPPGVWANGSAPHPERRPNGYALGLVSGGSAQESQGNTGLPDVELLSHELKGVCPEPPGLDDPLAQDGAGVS

Compound	IC50 [1] [nM]	IC50 [2] [nM]	A2A binding % Inh. @ 1000 nM ([2]; @ 1000 nM) [% Inh.]	A2B binding % Inh. @ 10000 nM ([1]; @ 10000 nM) [% Inh.]
COc1cc2nc(N)n3nc(C4CCC(C)N(c5cnn(C6CCCC6O)c5)C4)nc3c2cc1F (single isomer, unassigned) [Example 89, (1S or 1R,2S or 2R)-2-(4-((2S,5R or 2R,5S)-5-(5-amino-9-fluoro-8-methoxy-[1,2,4]triazolo[1,5-c]quinazolin-2-yl)-2-methylpiperidin-1-yl)-1H-pyrazol-1-yl)cyclopentan-1-ol]	3.4	0.2	–	–
COc1cc2nc(N)n3nc([C@@H]4C[C@H](C)CN(c5cnn(CC(C)(C)O)c5)C4)nc3c2cc1F (single isomer, unassigned) [Example 90, 1-(4-((3R,5S or 3S,5R)-3-(5-amino-9-fluoro-8-methoxy-[1,2,4]triazolo[1,5-c]quinazolin-2-yl)-5-methylpiperidin-1-yl)-1H-pyrazol-1-yl)-2-methylpropan-2-ol]	29	1.2	–	–
COc1cc2nc(N)n3nc([C@H]4C[C@@H](C)CN(c5cnn(CC(C)(C)O)c5)C4)nc3c2cc1F (single isomer, unassigned) [Example 91, 1-(4-((3S,5R or 3R,5S)-3-(5-amino-9-fluoro-8-methoxy-[1,2,4]triazolo[1,5-c]quinazolin-2-yl)-5-methylpiperidin-1-yl)-1H-pyrazol-1-yl)-2-methylpropan-2-ol]	4620	44.7	–	–
COc1cc2nc(N)n3nc([C@@H]4C[C@@H](C)CN(c5cnn(CC(C)(C)O)c5)C4)nc3c2cc1F (single isomer, unassigned) [Example 92, rac-1-(4-((3R,5R or 3S,5S)-3-(5-amino-9-fluoro-8-methoxy-[1,2,4]triazolo[1,5-c]quinazolin-2-yl)-5-methylpiperidin-1-yl)-1H-pyrazol-1-yl)-2-methylpropan-2-ol]	602	10.9	–	–
COc1cc2nc(N)n3nc([C@@H]4CCCN(c5cnn(CCCC(C)O)c5)C4)nc3c2cc1F (single isomer, unassigned) [Example 94, (S or R)-5-(4-((R)-3-(5-amino-9-fluoro-8-methoxy-[1,2,4]triazolo[1,5-c]quinazolin-2-yl)piperidin-1-yl)-1H-pyrazol-1-yl)pentan-2-ol]	752	7.8	–	–
COc1cc2nc(N)n3nc([C@@H]4CCCN(c5cnn(CCCC(C)O)c5)C4)nc3c2cc1F (single isomer, unassigned) [Example 95, (R or S)-5-(4-((R)-3-(5-amino-9-fluoro-8-methoxy-[1,2,4]triazolo[1,5-c]quinazolin-2-yl)piperidin-1-yl)-1H-pyrazol-1-yl)pentan-2-ol]	5040	205	–	–
COc1cc2nc(N)n3nc([C@@H]4CC[C@H](C)N(c5cnn(C6CCC(C)(O)CC6)c5)C4)nc3c2cc1F (single isomer, unassigned) [Example 96, rac-(1r,4s or 1r,4r)-4-(4-((2S,5R or 2R,5S)-5-(5-amino-9-fluoro-8-methoxy-[1,2,4]triazolo[1,5-c]quinazolin-2-yl)-2-methylpiperidin-1-yl)-1H-pyrazol-1-yl)-1-methylcyclohexan-1-ol]	24.6	0.7	–	–
COc1cc2nc(N)n3nc([C@@H]4CC[C@H](C)N(c5cnn(C6CCC(C)(O)CC6)c5)C4)nc3c2cc1F (single isomer, unassigned) [Example 97, rac-(1r,4r or 1r,4s)-4-(4-((2S,5R or 2R,5S)-5-(5-amino-9-fluoro-8-methoxy-[1,2,4]triazolo[1,5-c]quinazolin-2-yl)-2-methylpiperidin-1-yl)-1H-pyrazol-1-yl)-1-methylcyclohexan-1-ol]	33.3	0.6	–	–
COc1cc2nc(N)n3nc([C@@H]4CCCN(c5cnn([C@H]6CC[C@]6(C)O)c5)C4)nc3c2cc1F (single isomer, unassigned) [Example 98, (1S or 1R,2S or 2R)-2-(4-((R)-3-(5-amino-9-fluoro-8-methoxy-[1,2,4]triazolo[1,5-c]quinazolin-2-yl)piperidin-1-yl)-1H-pyrazol-1-yl)-1-methylcyclobutan-1-ol]	116	0.9	–	–
COc1cc2nc(N)n3nc([C@@H]4CCCN(c5cnn([C@@H]6CC[C@@]6(C)O)c5)C4)nc3c2cc1F (single isomer, unassigned) [Example 99, (1R or 1S,2R or 2S)-2-(4-((R)-3-(5-amino-9-fluoro-8-methoxy-[1,2,4]triazolo[1,5-c]quinazolin-2-yl)piperidin-1-yl)-1H-pyrazol-1-yl)-1-methylcyclobutan-1-ol]	231	4.4	–	–
COc1cc(Cl)cc2c1nc(N)n1nc(C3CCCN(c4cnn(C)c4)C3)nc21 (single isomer, unassigned) [Example 104, (R or S)-9-chloro-7-methoxy-2-(1-(1-methyl-1H-pyrazol-4-yl)piperidin-3-yl)-[1,2,4]triazolo[1,5-c]quinazolin-5-amine]	766	17.7	–	–
COc1cc(F)cc2c1nc(N)n1nc([C@@H]3CC[C@@H](C)N(c4cn(CC(C)(C)O)nc4C)C3)nc21 (single isomer, unassigned) [Example 114, 1-(4-((2R or 2S,5R or 5S)-5-(5-amino-9-fluoro-7-methoxy-[1,2,4]triazolo[1,5-c]quinazolin-2-yl)-2-methylpiperidin-1-yl)-3-methyl-1H-pyrazol-1-yl)-2-methylpropan-2-ol]	2900	50.6	–	–
COc1cc(F)cc2c1nc(N)n1nc([C@@H]3CC[C@H](C)N(c4cn(CC(C)(C)O)nc4C)C3)nc21 (single isomer, unassigned) [Example 115, 1-(4-((2S or 2R,5R or 5S)-5-(5-amino-9-fluoro-7-methoxy-[1,2,4]triazolo[1,5-c]quinazolin-2-yl)-2-methylpiperidin-1-yl)-3-methyl-1H-pyrazol-1-yl)-2-methylpropan-2-ol]	895	2.9	–	–
COc1cc(F)cc2c1nc(N)n1nc([C@H]3CC[C@H](C)N(c4cn(CC(C)(C)O)nc4C)C3)nc21 (single isomer, unassigned) [Example 116, 1-(4-((2S or 2R,5S or 5R)-5-(5-amino-9-fluoro-7-methoxy-[1,2,4]triazolo[1,5-c]quinazolin-2-yl)-2-methylpiperidin-1-yl)-3-methyl-1H-pyrazol-1-yl)-2-methylpropan-2-ol]	–	207	–	35
COc1cc(F)cc2c1nc(N)n1nc([C@H]3CC[C@@H](C)N(c4cn(CC(C)(C)O)nc4C)C3)nc21 (single isomer, unassigned) [Example 117, 1-(4-((2R or 2S,5S or 5R)-5-(5-amino-9-fluoro-7-methoxy-[1,2,4]triazolo[1,5-c]quinazolin-2-yl)-2-methylpiperidin-1-yl)-3-methyl-1H-pyrazol-1-yl)-2-methylpropan-2-ol]	13	0.2	–	–

Further lines, results first:

IC50 [1] [nM]	IC50 [2] [nM]	A2A binding % Inh. @ 1000 nM ([2]; @ 1000 nM) [% Inh.]	A2B binding % Inh. @ 10000 nM ([1]; @ 10000 nM) [% Inh.]	Compound
390	32.7	–	–	Cn1cc(N2CCCC(c3nc4c5cc(F)c(F)cc5nc(N)n4n3)C2)cn1 (single isomer, unassigned) [Example 101, (R or S)-8,9-difluoro-2-(1-(1-methyl-1H-pyrazol-4-yl)piperidin-3-yl)-[1,2,4]triazolo[1,5-c]quinazolin-5-amine]
539	104	–	–	Cn1cc(N2CCCC(c3nc4c5cc(F)ccc5nc(N)n4n3)C2)cn1 (single isomer, unassigned) [Example 102, (R or S)-9-fluoro-2-(1-(1-methyl-1H-pyrazol-4-yl)piperidin-3-yl)-[1,2,4]triazolo[1,5-c]quinazolin-5-amine]
137	0.5	–	–	Cn1cc(N2CCCC(c3nc4c5cc(F)cc(F)c5nc(N)n4n3)C2)cn1 (single isomer, unassigned) [Example 103, (R or S)-7,9-difluoro-2-(1-(1-methyl-1H-pyrazol-4-yl)piperidin-3-yl)-[1,2,4]triazolo[1,5-c]quinazolin-5-amine]
743	329	–	–	Cc1cc(Cl)cc2c1nc(N)n1nc(C3CCCN(c4cnn(C)c4)C3)nc21 (single isomer, unassigned) [Example 105, (R or S)-9-chloro-7-methyl-2-(1-(1-methyl-1H-pyrazol-4-yl)piperidin-3-yl)-[1,2,4]triazolo[1,5-c]quinazolin-5-amine]
430	316	–	–	Cn1cc(N2CCCC(c3nc4c5cc(Cl)ccc5nc(N)n4n3)C2)cn1 (single isomer, unassigned) [Example 106, (R or S)-9-chloro-2-(1-(1-methyl-1H-pyrazol-4-yl)piperidin-3-yl)-[1,2,4]triazolo[1,5-c]quinazolin-5-amine]
1520	127	–	–	Cn1cc(N2CCCC(c3nc4c5c(F)c(F)ccc5nc(N)n4n3)C2)cn1 (single isomer, unassigned) [Example 107, (R or S)-9,10-difluoro-2-(1-(1-methyl-1H-pyrazol-4-yl)piperidin-3-yl)-[1,2,4]triazolo[1,5-c]quinazolin-5-amine]
8470	–	36	–	COc1ccc2nc(N)n3nc(C4CCCN(c5cnn(C)c5)C4)nc3c2c1 (single isomer, unassigned) [Example 108, (R or S)-9-methoxy-2-(1-(1-methyl-1H-pyrazol-4-yl)piperidin-3-yl)-[1,2,4]triazolo[1,5-c]quinazolin-5-amine]
